From ChEMBL document CHEMBL1153189, “The comparative antimalarial properties of weak base and neutral synthetic ozonides” (Bioorg Med Chem Lett, 2010)
Values after ≈ are worked out from the molar mass of the structure shown.

Experiments:
Plasmodium falciparum [1] = assay: Antimalarial activity against chloroquine-sensitive Plasmodium falciparum NF54; type: functional, organism-based
Plasmodium berghei [2] = assay: Antimalarial activity against Plasmodium berghei infected in NMRI mice (Mus musculus) assessed as reduction in parasitaemia at 10 mg/kg, perorally administered 1 day post infection; type: functional; set-up: scale not given: the % may be the effect or the level left; conditions: route oral
Plasmodium berghei [3] = assay: Antimalarial activity against Plasmodium berghei infected in NMRI mice (Mus musculus) assessed as reduction in parasitaemia at 3 mg/kg, perorally administered for 3 days post infection; type: functional; set-up: scale not given: the % may be the effect or the level left; conditions: route oral
Plasmodium berghei [4] = assay: Antimalarial activity against Plasmodium berghei infected in NMRI mice (Mus musculus) assessed as survival time at 3 mg/kg, perorally administered for 3 days post infection; type: functional; conditions: route oral
Plasmodium berghei [5] = assay: Antimalarial activity against Plasmodium berghei infected in NMRI mice (Mus musculus) assessed as cure rat at 3 mg/kg, perorally administered for 3 days post infection measured after 30 days; type: functional; conditions: route oral
Rattus norvegicus [6] = assay: Half life in Sprague-Dawley rat at 10 mg/kg, iv; type: ADME, organism-based; set-up: dose 10 mg/kg, route intravenous; conditions: in vivo
Rattus norvegicus [7] = assay: Volume of distribution in Sprague-Dawley rat at 10 mg/kg, iv; type: ADME, organism-based; set-up: dose 10 mg/kg, route intravenous; conditions: in vivo
[8] = Oral bioavailability in Sprague-Dawley rat at 10 mg/kg; type: ADME, organism-based; conditions: in vivo
Cytochrome P450 2D6 = Cytochrome P450 2D6 (Homo sapiens, UniProt P10635); assay: Inhibition of CYP2D6; type: ADME
Chain of Cytochrome P450 2D6 (P10635 whole entry): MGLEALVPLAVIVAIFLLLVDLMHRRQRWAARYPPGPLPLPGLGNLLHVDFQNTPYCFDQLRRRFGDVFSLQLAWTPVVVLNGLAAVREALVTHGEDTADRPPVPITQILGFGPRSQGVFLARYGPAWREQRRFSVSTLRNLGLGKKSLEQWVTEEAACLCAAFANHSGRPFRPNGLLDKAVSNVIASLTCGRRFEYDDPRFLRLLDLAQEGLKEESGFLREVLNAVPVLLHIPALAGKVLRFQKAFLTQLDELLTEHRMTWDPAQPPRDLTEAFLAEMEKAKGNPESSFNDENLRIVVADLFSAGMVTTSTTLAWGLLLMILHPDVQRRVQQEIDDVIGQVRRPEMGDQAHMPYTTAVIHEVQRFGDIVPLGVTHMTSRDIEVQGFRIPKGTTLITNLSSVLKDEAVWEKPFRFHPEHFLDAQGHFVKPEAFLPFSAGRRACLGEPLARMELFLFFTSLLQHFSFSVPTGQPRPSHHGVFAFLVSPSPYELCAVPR

Cytochrome P450 3A4 = Cytochrome P450 3A4 (Homo sapiens, UniProt P08684); assay: Inhibition of CYP3A4; type: ADME
Chain of Cytochrome P450 3A4 (P08684 whole entry): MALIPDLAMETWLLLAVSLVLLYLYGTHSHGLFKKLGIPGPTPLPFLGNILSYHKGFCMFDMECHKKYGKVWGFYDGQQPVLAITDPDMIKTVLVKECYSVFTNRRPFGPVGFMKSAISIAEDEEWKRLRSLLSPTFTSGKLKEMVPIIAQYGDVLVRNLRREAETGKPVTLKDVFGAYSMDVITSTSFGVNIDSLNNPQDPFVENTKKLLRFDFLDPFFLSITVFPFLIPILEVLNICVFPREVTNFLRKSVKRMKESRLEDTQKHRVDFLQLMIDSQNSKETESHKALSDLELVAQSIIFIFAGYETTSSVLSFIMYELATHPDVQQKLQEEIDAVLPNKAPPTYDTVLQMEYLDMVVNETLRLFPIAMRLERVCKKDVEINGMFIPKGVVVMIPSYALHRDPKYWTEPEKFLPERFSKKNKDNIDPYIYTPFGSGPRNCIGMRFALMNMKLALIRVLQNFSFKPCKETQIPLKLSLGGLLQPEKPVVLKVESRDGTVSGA

Cytochrome P450 2C9 = Cytochrome P450 2C9 (Homo sapiens, UniProt P11712); assay: Inhibition of CYP2C9; type: ADME
Chain of Cytochrome P450 2C9 (P11712 whole entry): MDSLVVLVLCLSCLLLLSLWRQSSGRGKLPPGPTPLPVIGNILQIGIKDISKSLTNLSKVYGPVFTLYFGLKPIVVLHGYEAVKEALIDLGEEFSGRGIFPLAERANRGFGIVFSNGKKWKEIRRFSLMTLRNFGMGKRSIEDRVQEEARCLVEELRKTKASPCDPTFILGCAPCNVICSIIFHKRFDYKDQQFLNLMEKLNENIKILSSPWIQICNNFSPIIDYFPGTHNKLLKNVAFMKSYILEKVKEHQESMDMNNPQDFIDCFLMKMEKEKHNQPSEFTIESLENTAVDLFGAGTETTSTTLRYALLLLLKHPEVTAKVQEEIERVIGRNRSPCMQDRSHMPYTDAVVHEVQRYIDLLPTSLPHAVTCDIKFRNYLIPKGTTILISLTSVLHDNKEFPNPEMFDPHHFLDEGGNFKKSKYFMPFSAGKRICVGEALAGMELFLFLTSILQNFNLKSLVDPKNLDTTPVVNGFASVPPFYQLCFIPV

Cytochrome P450 2C19 = Cytochrome P450 2C19 (Homo sapiens, UniProt P33261); assay: Inhibition of CYP2C19; type: ADME
Chain of Cytochrome P450 2C19 (P33261 whole entry): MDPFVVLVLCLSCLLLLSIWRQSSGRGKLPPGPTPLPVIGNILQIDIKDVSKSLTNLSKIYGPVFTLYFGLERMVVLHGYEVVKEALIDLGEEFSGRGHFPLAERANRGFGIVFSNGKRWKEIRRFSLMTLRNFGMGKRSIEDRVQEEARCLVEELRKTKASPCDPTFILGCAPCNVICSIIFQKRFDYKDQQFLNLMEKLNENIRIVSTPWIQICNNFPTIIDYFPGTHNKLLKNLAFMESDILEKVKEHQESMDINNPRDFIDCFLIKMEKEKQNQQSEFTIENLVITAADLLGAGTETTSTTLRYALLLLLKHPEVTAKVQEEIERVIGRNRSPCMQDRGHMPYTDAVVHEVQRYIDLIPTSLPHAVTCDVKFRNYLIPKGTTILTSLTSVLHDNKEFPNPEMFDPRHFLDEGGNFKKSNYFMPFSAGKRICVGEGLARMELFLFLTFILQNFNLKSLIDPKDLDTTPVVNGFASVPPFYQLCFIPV

[9] = Lipophilicity, log D at pH 7.4; type: physicochemical; conditions: buffer
in vitro = conditions: human, liver microsomes
Description: Metabolic stability in human liver microsomes assessed as hepatic extraction ratio

Plasmodium falciparum [10] = assay: Antimalarial activity against chloroquine-resistant Plasmodium falciparum K1; type: functional, organism-based

SMILES	IC50 (Plasmodium falciparum [1]) [ng/mL]	Activity (Plasmodium berghei [2]) [%]	IC50 (Plasmodium falciparum [10]) [ng/mL]	other results
O=C(NCC1CCC2(CC1)OOC1(O2)C2CC3CC(C2)CC1C3)c1ccccn1 (stereo not drawn)	1.1 (≈ 2.76 nM)	99.6		
NC[C@H]1CC[C@]2(CC1)OOC1(O2)C2CC3CC(C2)CC1C3 (stereo partly drawn)		>99.9		Activity (Plasmodium berghei [3]): >99.9%; Survival (Plasmodium berghei [4]): 12.8 days; Activity (Plasmodium berghei [5]): 0%; t1/2 (Rattus norvegicus [6]): 1.5 h; Vd (Rattus norvegicus [7]): 46 L/kg; bioavailability [8]: 31%; Activity (Cytochrome P450 2D6): Not Active; IC50 (Cytochrome P450 3A4): 9.7 µM; IC50 (Cytochrome P450 2C9): 17 µM; IC50 (Cytochrome P450 2C19): 0.11 µM; logD [9]: 2.6; hepatic extraction ratio (in vitro): 0.24
Cc1ccc(S(=O)(=O)O)cc1.Cc1ccc(S(=O)(=O)O)cc1.O=C(CN1CCNCC1)NC[C@H]1CC[C@]2(CC1)OO[C@]1(O2)C2CC3CC(C2)CC1C3	1.4	99.7	0.59	
O=CNCC(=O)NC[C@H]1CC[C@]2(CC1)OO[C@]1(O2)C2CC3CC(C2)CC1C3		98	0.9 (≈ 2.38 nM)	
O=C(O)CCC(=O)NC[C@H]1CC[C@]2(CC1)OO[C@]1(O2)C2CC3CC(C2)CC1C3	97 (≈ 247 nM)	<40	71 (≈ 180 nM)	
O=C1CNC(=O)N1C[C@H]1CC[C@]2(CC1)OO[C@]1(O2)C2CC3CC(C2)CC1C3	2.7 (≈ 7.17 nM)	92	1 (≈ 2.66 nM)	
CS(=O)(=O)O.NCC(=O)NC[C@H]1CC[C@]2(CC1)OO[C@]1(O2)C2CC3CC(C2)CC1C3	0.29	99.9	0.36	Activity (Plasmodium berghei [3]): >99.9%; Activity (Plasmodium berghei [5]): 0%
NC1(C(=O)NC[C@H]2CC[C@]3(CC2)OO[C@]2(O3)C3CC4CC(C3)CC2C4)CCCCC1	0.44 (≈ 1.05 nM)	99.9	0.24 (≈ 0.573 nM)	
Cc1ccc(S(=O)(=O)O)cc1.NCCC(=O)NC[C@H]1CC[C@]2(CC1)OO[C@]1(O2)C2CC3CC(C2)CC1C3		99.9		Activity (Plasmodium berghei [3]): >99.9%; Survival (Plasmodium berghei [4]): 20.8 days; Activity (Plasmodium berghei [5]): 0%
O=C(CN1CCOCC1)NC[C@H]1CC[C@]2(CC1)OO[C@]1(O2)C2CC3CC(C2)CC1C3.O=C(O)/C=C\C(=O)O	1.8	99	0.88	logD [9]: 5
CS(=O)(=O)O.O=C(NC[C@H]1CC[C@]2(CC1)OO[C@]1(O2)C2CC3CC(C2)CC1C3)C(=O)N1CCNCC1	0.54	99.9	0.69	
NC(=O)NC[C@H]1CC[C@]2(CC1)OO[C@]1(O2)C2CC3CC(C2)CC1C3	1.6 (≈ 4.76 nM)	98	0.56 (≈ 1.66 nM)	
O=C(NC[C@H]1CC[C@]2(CC1)OO[C@]1(O2)C2CC3CC(C2)CC1C3)c1ccncc1	1.1 (≈ 2.76 nM)	99.5	2.2 (≈ 5.52 nM)	
CS(=O)(=O)O.O=C(NC[C@H]1CC[C@]2(CC1)OO[C@]1(O2)C2CC3CC(C2)CC1C3)c1c[nH]cn1	1.1	99.5	0.84	
CCNC(=O)NC[C@H]1CC[C@]2(CC1)OO[C@]1(O2)C2CC3CC(C2)CC1C3		98		
O=C(NC[C@H]1CC[C@]2(CC1)OO[C@]1(O2)C2CC3CC(C2)CC1C3)N1CCOCC1		98		
Cc1ccc(S(=O)(=O)O)cc1.O=C(NC[C@H]1CC[C@]2(CC1)OO[C@]1(O2)C2CC3CC(C2)CC1C3)N1CCNCC1	0.68	>99.9	0.43	Activity (Plasmodium berghei [3]): >99.9%; Survival (Plasmodium berghei [4]): 27 days; Activity (Plasmodium berghei [5]): 40%
NC1(C(=O)NC[C@H]2CC[C@]3(CC2)OO[C@]2(O3)C3CC4CC(C3)CC2C4)CCCC1	0.36 (≈ 0.89 nM)	99.9	0.33 (≈ 0.816 nM)	
Cc1ccc(S(=O)(=O)O)cc1.O=C(CNC1CC1)NC[C@H]1CC[C@]2(CC1)OO[C@]1(O2)C2CC3CC(C2)CC1C3	1.2	99.6	0.39	
